According to US9295671B2, “Benzenesulfonamide derivatives of quinoxaline, pharmaceutical compositions thereof, and their use in methods for treating cancer” (NEUPHARMA, INC., priority 2011, dated 2016):
pIC50: −log10 of the molar value.

Columns and labels:
BRAF V600E = target: T1, BRAF V600E (Homo sapiens, UniProt P15056, V600E); assay: LanthaScreen kinase assay, BRAF V600E; type: biochemical; conditions: ATP 10 μM
T1 construct: purchased Invitrogen
Procedure: (§1) The inhibitory activities of compounds against BRAF or BRAF V600E protein were measured using Invitrogne's LanthaScreen™ kinase assay which is based on fluorescein-labeled MAP2K1 as a substrate. The assay procedure is described as follows.
(§2) The scale utilized in Table 3 is as follows: ++++ less than 50 nM; +++ between 50 and 100 nM; ++ between 100 nM and 1 μM; and + greater than 1 μM.

BRAF = target: T2, BRAF (Homo sapiens, UniProt P15056); assay: LanthaScreen kinase assay, BRAF; type: biochemical; conditions: ATP 1 μM
T2 construct: purchased Invitrogen
Procedure: as §1, §2

[1] = test system: A375 (human melanoma cell, BRAF V600E Mutant); assay: Inhibition of cancer cell growth, MTT or MTS assay, A375; type: cell-based; conditions: A-375, 72 h, highest concentration 10 μM (Table 5)
Procedure: A375 (human melanoma cell, BRAF V600E Mutant), CHL-1 (human melanoma cell, BRAF wild type), SK-MEL-28 (human melanoma cell, BRAF V600E Mutant) and SK-MEL-31(human melanoma cell, Braf WT Mutant) were purchased from ATCC (American Type Culture Collection, Manassas, Va.). All cell lines were maintained in RPMI 1640 (Hyclone) or DMEM (Hyclone) supplemented with 10% fetal bovine serum (FBS, Hyclone), glutamine (2 mM, Hyclone), and antibiotics (penicillin 100 U/mL and streptomycin 50 μg/mL) at 37° C. in a humidified atmosphere of 5% CO2 in air.
To test IC50 of inhibition of individual compounds against each cell line, A375, SK-MEL-28and SK-MEL-31 cells were first plated in 96-well plates at densities of 3000 cells/well, and CHL-1 2500 cells/well. Cells were then incubated to allow cells to adhere and grow for 24 h. Cells were then treated with a series of concentrations of compounds for 72 h. The highest concentration of compounds was 10 μM for A375 and SK-MEL-28 cells and 100 μM for CHL-1 and SK-MEL-31 cells. Cells were then removed from the incubator and medium was removed by inverting and tapping the plates. 100 μL of MTT (0.5 mg/ml) or 10 μL or MTS was added to each well followed by an incubated at 37° C. for 4 h. Then MTT was removed and 200 μL of DMSO was added to each well, followed by reading the ODs at 570 nm after a 5 second shaking cycle in a 96-well spectrophotometer. For MTS method, MTS was not removed, and the incubated solutions were directly put in a 96-well spectrophotometer for the reading of the ODs at 492 nm.
IC50 was calculated by plotting the concentration of compound vs the percentage of inhibition in treated wells using GraphPad Prism 5. […] The scale utilized in Table 5 is as follows: +++ less than 500 nM; ++ between 500 nM and 1 μM; and + greater than 1 μM.

T1 sequence (P15056 whole entry V600E): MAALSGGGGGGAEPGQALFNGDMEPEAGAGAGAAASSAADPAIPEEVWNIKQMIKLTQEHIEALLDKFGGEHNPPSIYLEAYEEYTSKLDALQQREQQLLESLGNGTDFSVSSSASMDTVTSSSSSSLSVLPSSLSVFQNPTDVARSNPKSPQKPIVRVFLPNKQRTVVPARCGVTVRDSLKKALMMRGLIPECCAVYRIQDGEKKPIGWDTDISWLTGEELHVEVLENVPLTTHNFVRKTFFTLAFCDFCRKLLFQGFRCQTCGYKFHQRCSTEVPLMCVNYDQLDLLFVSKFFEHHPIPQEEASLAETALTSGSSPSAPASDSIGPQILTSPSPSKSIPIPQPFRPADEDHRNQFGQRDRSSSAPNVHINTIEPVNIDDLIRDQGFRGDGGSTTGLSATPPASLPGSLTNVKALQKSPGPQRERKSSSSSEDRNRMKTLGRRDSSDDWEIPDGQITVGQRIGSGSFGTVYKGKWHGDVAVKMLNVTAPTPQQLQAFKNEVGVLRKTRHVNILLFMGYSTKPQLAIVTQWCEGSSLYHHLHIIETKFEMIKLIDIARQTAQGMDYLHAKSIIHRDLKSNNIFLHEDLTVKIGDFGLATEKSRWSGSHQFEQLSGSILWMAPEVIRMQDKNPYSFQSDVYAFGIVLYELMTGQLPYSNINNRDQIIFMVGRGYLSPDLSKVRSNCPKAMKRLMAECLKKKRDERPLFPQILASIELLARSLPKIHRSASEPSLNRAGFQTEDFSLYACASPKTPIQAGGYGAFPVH
T2 sequence (P15056 whole entry): as the sequence (P15056 whole entry V600E) above, with E600V counted along it

SMILES | pIC50 (BRAF V600E) | pIC50 (BRAF) | pIC50 [1]
CCCS(=O)(=O)Nc1ccc(F)c(C(=O)c2ccc3ncc(N4CCOCC4)nc3c2)c1F [Compound C38, N-(2,4-difluoro-3-(3-morpholinoquinoxaline-6-carbonyl)phenyl)propane-1-sulfonamide] | 6.00 to 7.00 | 6.00 to 7.00 | > 6.30
CCCS(=O)(=O)Nc1ccc(F)c(C(=O)c2ccc3ncc(N4CCOCC4)nc3c2)c1Cl [Compound C41, N-(2-chloro-4-fluoro-3-(3-morpholinoquinoxaline-6-carbonyl)phenyl)propane-1-sulfonamide] | < 6.00 | < 6.00 | 
O=C(c1ccc2ncc(N3CCOCC3)nc2c1)c1c(F)c(F)cc(NS(=O)(=O)C2CC2)c1F [Compound C29, N-(2,4,5-trifluoro-3-(3-morpholinoquinoxaline-6-carbonyl)phenyl)cyclopropanesulfonamide] | 6.00 to 7.00 | 6.00 to 7.00 | > 6.30
CCCS(=O)(=O)Nc1cc(F)c(F)c(C(=O)c2ccc3ncc(OCCOC)nc3c2)c1F [Compound C22, N-(2,4,5-trifluoro-3-(3-(2-methoxyethoxy)quinoxaline-6-carbonyl)phenyl)propane-1-sulfonamide] | 7.00 to 7.30 | 7.00 to 7.30 | > 6.30
CCCS(=O)(=O)Nc1cc(F)c(F)c(C(=O)c2ccc3ncc(-c4ccc(F)cc4)nc3c2)c1F [Compound C28, N-(2,4,5-trifluoro-3-(3-(4-fluorophenyl)quinoxaline-6-carbonyl)phenyl)propane-1-sulfonamide] | 7.00 to 7.30 | 6.00 to 7.00 | 6.00 to 6.30
CCCS(=O)(=O)Nc1cc(F)c(F)c(C(=O)c2ccc3ncc(C#N)nc3c2)c1F [Compound C36, N-(3-(3-cyanoquinoxaline-6-carbonyl)-2,4,5-trifluorophenyl)propane-1-sulfonamide] | > 7.30 | 7.00 to 7.30 | 6.00 to 6.30
CCCS(=O)(=O)Nc1cc(F)c(F)c(C(=O)c2ccc3ncc(C)nc3c2)c1F [Compound C19, N-(2,4,5-trifluoro-3-(3-methylquinoxaline-6-carbonyl)phenyl)propane-1-sulfonamide] | 6.00 to 7.00 | 6.00 to 7.00 | < 6.00
CCCS(=O)(=O)Nc1cc(F)c(F)c(C(=O)c2ccc3ncc(-n4ccnc4C)nc3c2)c1F [Compound C20, N-(2,4,5-trifluoro-3-(3-(2-methyl-1H-imidazol-1-yl)quinoxaline-6-carbonyl)phenyl)propane-1-sulfonamide] | > 7.30 | 7.00 to 7.30 | > 6.30

The next lines start with the values.

pIC50 (BRAF V600E) | pIC50 (BRAF) | pIC50 [1] | SMILES
> 7.30 | > 7.30 | > 6.30 | CCCS(=O)(=O)Nc1cc(F)c(F)c(C(=O)c2ccc3ncc(-c4cn[nH]c4)nc3c2)c1F [Compound C27, N-(3-(3-(1H-pyrazol-4-yl)quinoxaline-6-carbonyl)-2,4,5-trifluorophenyl)propane-1-sulfonamide]
> 7.30 | > 7.30 | > 6.30 | CCCS(=O)(=O)Nc1cc(F)c(F)c(C(=O)c2ccc3ncc(-c4ccncc4)nc3c2)c1F [Compound C33, N-(2,4,5-trifluoro-3-(3-(pyridin-4-yl)quinoxaline-6-carbonyl)phenyl)propane-1-sulfonamide]
> 7.30 | 6.00 to 7.00 | 6.00 to 6.30 | CCCS(=O)(=O)Nc1cc(F)c(F)c(C(=O)c2ccc3ncc(-c4ccccc4)nc3c2)c1F [Compound C26, N-(2,4,5-trifluoro-3-(3-phenylquinoxaline-6-carbonyl)phenyl)propane-1-sulfonamide]
> 7.30 | 7.00 to 7.30 | > 6.30 | CCCS(=O)(=O)Nc1cc(F)c(F)c(C(=O)c2ccc3ncc(-n4cncc4C)nc3c2)c1F [Compound C40, N-(2,4,5-trifluoro-3-(3-(5-methyl-1H-imidazol-1-yl)quinoxaline-6-carbonyl)phenyl)propane-1-sulfonamide]
> 7.30 | 7.00 to 7.30 | < 6.00 | CCCS(=O)(=O)Nc1cc(F)c(F)c(C(=O)c2ccc3ncc(F)nc3c2)c1F [Compound C35, N-(2,4,5-trifluoro-3-(3-fluoroquinoxaline-6-carbonyl)phenyl)propane-1-sulfonamide]
> 7.30 | > 7.30 | > 6.30 | CCCS(=O)(=O)Nc1cc(F)c(F)c(C(=O)c2ccc3ncc(-c4ccc(C)nc4)nc3c2)c1F [Compound C34, N-(2,4,5-trifluoro-3-(3-(6-methylpyridin-3-yl)quinoxaline-6-carbonyl)phenyl)propane-1-sulfonamide]
> 7.30 | > 7.30 | > 6.30 | CCCS(=O)(=O)Nc1cc(F)c(F)c(C(=O)c2ccc3ncc(-n4ccnc4)nc3c2)c1F [Compound C23, N-(3-(3-(1H-imidazol-1-yl)quinoxaline-6-carbonyl)-2,4,5-trifluorophenyl)propane-1-sulfonamide]
> 7.30 | > 7.30 | > 6.30 | CCCS(=O)(=O)Nc1cc(F)c(F)c(C(=O)c2ccc3ncc(N4CCNCC4)nc3c2)c1F [Compound C24, N-(2,4,5-trifluoro-3-(3-(piperazin-1-yl)quinoxaline-6-carbonyl)phenyl)propane-1-sulfonamide]
> 7.30 | > 7.30 | > 6.30 | CCCS(=O)(=O)Nc1cc(F)c(F)c(C(=O)c2ccc3ncc(-c4cccnc4)nc3c2)c1F [Compound C30, N-(2,4,5-trifluoro-3-(3-(pyridin-3-yl)quinoxaline-6-carbonyl)phenyl)propane-1-sulfonamide]
> 7.30 | > 7.30 | > 6.30 | CCCS(=O)(=O)Nc1cc(F)c(F)c(C(=O)c2ccc3ncc(-n4cnc(C)c4)nc3c2)c1F [Compound C21, N-(2,4,5-trifluoro-3-(3-(4-methyl-1H-imidazol-1-yl)quinoxaline-6-carbonyl)phenyl)propane-1-sulfonamide]
